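Compound exposure: 48 hours, 5 concentrations, 96-well plates. GI50 is the concentration that inhibits growth by half.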 The source made the active and inactive calls. No stated cut-off is given here; in the data, active = GI50 up to about 1.1 µM and inactive = higher.
Experiments:
Experiment in all cases: NCI anticancer screen, dose series, 48 h
HOP-18 = tested on: HOP-18
SNB-78 = tested on: SNB-78
DMS-273 = tested on: DMS-273
LXFL 529 = tested on: LXFL 529
XF498 = tested on: XF498
M19-MEL = tested on: M19-MEL
KM-20L2 = tested on: KM-20L2
DLD-1 = tested on: DLD-1
RXF 631 = tested on: RXF 631

Structure (SMILES)	GI50 (HOP-18)	GI50 (SNB-78)	GI50 (DMS-273)	GI50 (LXFL 529)	GI50 (XF498)	GI50 (M19-MEL)	GI50 (KM-20L2)	GI50 (DLD-1)	GI50 (RXF 631)
COc1cc(/C=C/c2ccc(/C=C/c3cc(OC)c(OC)c(OC)c3)cc2)cc(OC)c1OC	32.1 µM (inactive)	26.1 µM (inactive)	14.6 µM (inactive)	11.9 µM (inactive)	17 µM (inactive)	32.9 µM (inactive)	20.8 µM (inactive)	42.3 µM (inactive)	
CC(O)CCC(=O)c1ccoc1 (centres undefined)	5150 µM (inactive)	5500 µM (inactive)	5450 µM (inactive)	> 1000 µM (inactive)		5480 µM (inactive)	> 9160 µM (inactive)	7960 µM (inactive)	
CC(C)CCC[C@@H](C)C1CCC2[C@@H]3CC=C4C[C@@H](OC(=O)CCC(=O)NCC[N+](C)(C)CCCS(=O)(=O)[O-])CC[C@]4(C)C3CC[C@@]21C (some centres undefined)	30.5 µM (inactive)	24.9 µM (inactive)	14.7 µM (inactive)	27.9 µM (inactive)		18.5 µM (inactive)	81.3 µM (inactive)	21.7 µM (inactive)	
COc1ccc(/C(=N\NC(=S)NN)C(c2ccc(OC)cc2)C2C(=O)Oc3ccccc32)cc1 (centres undefined)	7.18 µM (inactive)	> 10 µM (inactive)	> 10 µM (inactive)	72.4 µM (inactive)	> 10 µM (inactive)	> 10 µM (inactive)	> 10 µM (inactive)	> 10 µM (inactive)	
C#CC(C)(C)OCCCCOc1cc(O)c2c(=O)c3ccccc3n(C)c2c1	> 100 µM (inactive)	> 100 µM (inactive)	77.8 µM (inactive)	> 100 µM (inactive)	> 100 µM (inactive)	> 100 µM (inactive)	31.3 µM (inactive)	> 100 µM (inactive)	
Cc1c(C(=O)CSc2nc3ccccc3c(=O)n2-c2ccccc2)c(=O)n(-c2ccccc2)n1C		45.5 µM (inactive)	68.2 µM (inactive)		43.2 µM (inactive)	52.7 µM (inactive)	> 100 µM (inactive)	> 100 µM (inactive)	
NNC(=O)CNC(=O)c1ccc(Cl)cc1Cl	> 100 µM (inactive)		> 100 µM (inactive)	> 100 µM (inactive)	91.6 µM (inactive)	> 100 µM (inactive)	> 100 µM (inactive)	> 100 µM (inactive)	
Nc1ncnc(NC2C=C(CO)C(O)C2O)c1[N+](=O)[O-] (centres undefined)	> 100 µM (inactive)	> 100 µM (inactive)	> 100 µM (inactive)	> 100 µM (inactive)		> 100 µM (inactive)	> 100 µM (inactive)	> 100 µM (inactive)	> 100 µM (inactive)
COC1CCC(OC)C(C2(C3CC(OC)CCC3OC)OC(=O)c3ccccc32)C1 (centres undefined)	> 100 µM (inactive)	> 100 µM (inactive)	22.6 µM (inactive)		76.4 µM (inactive)		44.2 µM (inactive)	> 100 µM (inactive)	> 100 µM (inactive)
Cc1cc(C)nc(/C(=N\NC(N)=O)C(=O)Nc2nc3ccc(C)cc3s2)c1	> 100 µM (inactive)	> 100 µM (inactive)	> 58.1 µM (inactive)	> 100 µM (inactive)	> 100 µM (inactive)	> 100 µM (inactive)	> 92.3 µM (inactive)	> 85.3 µM (inactive)	
COC1(OC)CCC2C1C1CCC(OC)(OC)C21 (centres undefined)	> 50 µM (inactive)	> 50 µM (inactive)	> 50 µM (inactive)	> 50 µM (inactive)	> 50 µM (inactive)	> 50 µM (inactive)	> 50 µM (inactive)	> 50 µM (inactive)	> 50 µM (inactive)
CCOC(=O)/C=C/n1c2ccccc2c(=O)c2ccccc21			> 100 µM (inactive)	> 100 µM (inactive)	> 100 µM (inactive)	> 100 µM (inactive)	> 100 µM (inactive)	23.1 µM (inactive)	
CO/C=C(\Br)c1ccc2c(c1)OCO2		> 100 µM (inactive)	> 100 µM (inactive)	> 100 µM (inactive)	> 100 µM (inactive)	> 100 µM (inactive)			> 100 µM (inactive)
Nc1nc(CCC(=O)Nc2cccc(C(F)(F)F)c2)cc(-c2ccc3ccccc3c2)n1	> 100 µM (inactive)	> 100 µM (inactive)	> 100 µM (inactive)	> 100 µM (inactive)	> 100 µM (inactive)	> 100 µM (inactive)	> 100 µM (inactive)	> 100 µM (inactive)	
CN(C)C(=S)/N=c1\ssc(=S)n1Cc1cccnc1	> 100 µM (inactive)	> 100 µM (inactive)	1.09 µM (active)	6.15 µM (inactive)	3.15 µM (inactive)	1.51 µM (inactive)	2.06 µM (inactive)	3.95 µM (inactive)	4.39 µM (inactive)
CCc1nnc(S)n1/N=C/c1ccc(-c2ccc([N+](=O)[O-])cc2)o1		> 100 µM (inactive)	> 100 µM (inactive)	> 100 µM (inactive)	> 100 µM (inactive)	> 100 µM (inactive)	> 100 µM (inactive)	> 100 µM (inactive)	
COC(=O)C1=C(C(=O)OC)C2(C)Nc3ccccc3C2=C(c2ccccc2)C1 (centres undefined)		19 µM (inactive)	21.4 µM (inactive)	15.1 µM (inactive)	12.7 µM (inactive)	24.2 µM (inactive)	28.1 µM (inactive)	30.4 µM (inactive)	
O=c1cc(-c2ccccc2)oc2cc(OCC(O)COc3ccc4c(=O)cc(-c5ccccc5)oc4c3)ccc12	> 100 µM (inactive)	13.6 µM (inactive)	41.9 µM (inactive)	40 µM (inactive)	23.4 µM (inactive)	56.4 µM (inactive)	> 100 µM (inactive)	> 100 µM (inactive)	
COC12CCC(C(C(=O)c3ccccc3)=C1C(=O)c1ccccc1)C(O)C2 (centres undefined)		> 100 µM (inactive)	> 100 µM (inactive)	> 100 µM (inactive)	> 100 µM (inactive)	> 100 µM (inactive)		> 100 µM (inactive)	> 100 µM (inactive)
O=C(OC1CC(n2cc(F)c(=O)[nH]c2=O)OC1CSC(=O)c1ccccc1)c1ccccc1 (centres undefined)	33.3 µM (inactive)	32.1 µM (inactive)		90.8 µM (inactive)		26.5 µM (inactive)	18.7 µM (inactive)	33.8 µM (inactive)	15.1 µM (inactive)
CCCCN(CCCC)C(=O)C(=O)CC(=O)c1ccc(Br)cc1	> 100 µM (inactive)	> 100 µM (inactive)	> 100 µM (inactive)	> 100 µM (inactive)	> 100 µM (inactive)	> 100 µM (inactive)	> 100 µM (inactive)	> 100 µM (inactive)	
c1ccc2c(C3NCCc4nc[nH]c43)cccc2c1 (centres undefined)	> 100 µM (inactive)	> 100 µM (inactive)	> 100 µM (inactive)	> 100 µM (inactive)		> 100 µM (inactive)	> 100 µM (inactive)	> 100 µM (inactive)	
CCCCSC1CCSc2c1ccc1ccccc21 (centres undefined)	> 100 µM (inactive)	> 100 µM (inactive)			0.119 µM (active)	> 100 µM (inactive)	53.8 µM (inactive)	78.9 µM (inactive)	
CCOC(=O)C1S/C(=N\c2cccc(Cl)c2C)N=C1C (centres undefined)	28.7 µM (inactive)	33 µM (inactive)		> 10 µM (inactive)	19.7 µM (inactive)	26.9 µM (inactive)	17.3 µM (inactive)	> 10 µM (inactive)	
Cn1cnc([N+](=O)[O-])c1Sc1nc(N)nc2c1ncn2C1OC(CO)C(O)C1O (centres undefined)	44.7 µM (inactive)	7.26 µM (inactive)	4.17 µM (inactive)	45.8 µM (inactive)	6.87 µM (inactive)	35.2 µM (inactive)	3.06 µM (inactive)	7.67 µM (inactive)	
N#C/C(=C\c1cc(O)cc(O)c1)C(N)=O		> 100 µM (inactive)	> 100 µM (inactive)	> 100 µM (inactive)	> 100 µM (inactive)	> 100 µM (inactive)	> 100 µM (inactive)	> 100 µM (inactive)	> 100 µM (inactive)
C[N+](C)(C)CCC(=O)CC[N+](C)(C)C	17.1 µM (inactive)	22.3 µM (inactive)	25.6 µM (inactive)	16.1 µM (inactive)	21.2 µM (inactive)	23.5 µM (inactive)	25.5 µM (inactive)	16.2 µM (inactive)	
CC12CCC(=O)N1c1cc([N+](=O)[O-])ccc1N2 (centres undefined)	> 100 µM (inactive)	> 100 µM (inactive)	> 100 µM (inactive)	> 100 µM (inactive)	> 100 µM (inactive)	> 100 µM (inactive)	> 100 µM (inactive)	> 100 µM (inactive)	> 100 µM (inactive)
